Test results: patent EP4813986A1, “COMPOUND FOR REDUCING SERUM CONCENTRATION OF RBP4, AND USE” (Heronova Pharmaceuticals, LLC, priority 2023, dated 2025)

Assays:
RBP4 = target: T1, RBP4 (Mus musculus, UniProt Q00724); test: Plasma RBP4 content detection test (ELISA) after single oral dose; format: in vivo, ICR male mice; settings: 5 mg/kg oral, maximum reduction within 5 to 24 hours vs 0-hour value
T1 construct: from tissue; host or cells: plasma of ICR male mice
Description: Test Method: ICR male mice aged 7 to 8 weeks were adaptively fed for 3 to 7 days and randomly divided into groups (4 mice per group), and fasted for 12 hours before the test. Orbital venous blood samples were collected and plasma was separated before administration on the test day (0-hour value as the initial content). Then, test compounds at a dose of 1 mg/kg or 5 mg/kg were orally administered (vehicle: 5% DMSO + 10% cyclodextrin), and vehicle (5% DMSO + 10% cyclodextrin) was orally administered as a control group. Orbital venous blood samples were collected and plasma was separated at 5, 8, 10, 12, and 24 hours after compound administration. The RBP4 content in plasma samples was detected using Mouse RBP4 (Retinol Binding Protein 4, Plasma) ELISA Kit (immunoway, KE1574), the reduction rate was calculated, and the maximum reduction rate within 5 to 24 hours was selected. Reduction rate of RBP4 content in mouse plasma at different sampling time points = (Initial RBP4 content - RBP4 content at sampling point) / Initial RBP4 content. Table 2 Plasma RBP4 Reduction Levels of Different Compounds

in vitro = settings: microsomes, pH 7.4
Description: Phosphate buffer preparation: Weigh 7.098 g of disodium hydrogen phosphate, add 500 mL of pure water and dissolve by ultrasonication to obtain a disodium hydrogen phosphate solution. Weigh 3.400 g of potassium dihydrogen phosphate, add 250 mL of pure water and dissolve by ultrasonication to obtain a potassium dihydrogen phosphate solution. The disodium hydrogen phosphate solution and potassium dihydrogen phosphate solution were mixed and adjusted to pH 7.4+0.2.
10 mM NADPH preparation: Weigh an appropriate amount of NADPH (reduced coenzyme II), freshly prepare a 10 mM working solution with phosphate buffer, and the final concentration is 1 mM.
Incubation system preparation: Prepare the suspension into the incubation plate according to Table 5, and pre-incubate in a 37°C water bath for 10 min. Table 5 Incubation System Preparation
2 µL of positive control or test compound working solution was added to 358 µL of the incubation system, mixed uniformly by vortexing, and all samples were prepared in duplicate. 40 µL of 10 mM NADPH was added to the system, mixed uniformly by low-speed vortexing, and the reaction timing was started. […] Centrifuge at 4700 rpm, 4°C for 15 minutes to precipitate proteins. Transfer 100 µL of the supernatant to the sample plate, add 100 µL of pure water and mix well for UPLC-MS/MS analysis. Table 6 Liver Microsome Stability Results

[1] = Pharmacokinetic test, single oral dose, plasma LC-MS/MS; format: in vivo; settings: mouse, single oral dose 10 mg/kg, male ICR mice
Description: Test Method: Three ICR mice (male) were used for each compound, with five groups in total. Mice were treated with a single oral dose of 10 mg/kg or 5 mg/kg. For each mouse, blood samples were collected at 0.25, 0.5, 1, 2, 4, and 8 hours after administration. Whole blood samples were placed in test tubes containing EDTA-K2, inverted up and down several times, and then centrifuged at 6000 rpm, 4°C for 15 minutes to obtain plasma. The concentration of the compound in plasma samples was determined using the LC-MS/MS method. Table 4 Pharmacokinetic Results of Different Compounds

Maximum Plasma RBP4 Reduction Rate (5 mg/kg dose) (RBP4): 11% | half-life at 1 µM (in vitro; human): > 180 min | microsomal CLint at 1 µM (in vitro; human): < 7.44 µL/min/mg | half-life at 1 µM (in vitro; mouse): 43 min | microsomal CLint at 1 µM (in vitro; mouse): 32.2 µL/min/mg | AUC(0-t) [1]: 13.3 ng·h/mL | Cmax ([1]; read-out: peak concentration Cmax): 15.2 ng/mL | Tmax ([1]; read-out: peak time Tmax): 30 min
Structure (SMILES): CC(C(N)=O)C(=O)N1CCc2c(C(=O)N3CC=C(c4cccc(F)c4C(F)(F)F)CC3)n[nH]c2C1 (centres unmarked) [Compound 22]
